These results are taken from ChEMBL document CHEMBL1126375, “Synthesis of chiral phosphorus mustards derived from serine” (Bioorg Med Chem Lett, 1992).

Activity calls are given as the source filed them. No cut-off for these calls is given here.

One test relates to Tumor cell line. As to the kind of experiment: Compound was tested for in vitro activity against tumor cell lines; NA=No activity. The format is functional, cell-based.
The test system of test [1] is Human immunodeficiency virus 1. Nature of the test: Compound was tested for in vitro anti-human immunodeficiency virus activity; NA=No activity. The format is functional, organism-based.

With `COC(=O)[C@H]1CO[P@](=O)(N(CCCl)CCCl)N1Cc1ccccc1`, the outcome (in the test with Tumor cell line; in test [1]) was inactive.
`COC(=O)[C@@H]1CO[P@@](=O)(N(CCCl)CCCl)N1Cc1ccccc1` (stereo in doubt; 5a): the outcome (in the test with Tumor cell line; in test [1]) was inactive.
Turning to `COC(=O)[C@@H]1CO[P@@](=O)(N(CCCl)CCCl)N1Cc1ccccc1` (stereo in doubt; 5b), the outcome (in the test with Tumor cell line; in test [1]) was inactive.
For `COC(=O)[C@@H]1CO[P@@](=O)(N(CCCl)CCCl)N1Cc1ccccc1` (stereo in doubt; 7a), the result (with Tumor cell line; in test [1]) was inactive.
